Laboratory results reported in article PMC6199744, “Development of Chemical Proteomics for the Folateome and Analysis of the Kinetoplastid Folateome” (ACS Infectious Diseases, 2018).

Test system: L. major lysate proteins
Assay: Multitargeted bead mixture chemoproteomics, single concentration competition, proteome-wide
Assay type: binding
Conditions: for fold change: vehicle control = 1

## NCCCNc1ccc(C(=O)NC(CCC(=O)O)C(=O)O)cc1 (stereo not drawn) [compound 7]
Protein LMJF.28.0110 PROTEASOME BETA 3 SUBUNIT, PUTATIVE
  fold change vs vehicle control: 0.99
Protein LMJF.28.0490 PROPIONYL-COA C[…] CHAIN, PUTATIVE
  fold change vs vehicle control: 1.21
Protein LMJF.28.0710 HYPOTHETICAL PROTEIN, CONSERVED (SNARE associated Golgi protein, putative)
  fold change: 0.86
Protein LMJF.28.0930 HYPOTHETICAL PROTEIN, CONSERVED
  fold change vs vehicle control: 0.98
Protein LMJF.28.0960 40S RIBOSOMAL PROTEIN S14
  fold change vs vehicle control: 0.99
Protein LMJF.28.1530 ATP DEPENDENT DEAD-BOX HELICASE, PUTATIVE
  fold change vs vehicle control: 0.89
Protein LMJF.28.1730, PROTEASOME REGULATORY NON-ATP-ASE SUBUNIT 2, PUTATIVE
  fold change relative to vehicle control: 1.27
Protein LMJF.28.2310, EUKARYOTIC TRANSLATION INITIATION FACTOR, PUTATIVE
  fold change relative to vehicle control: 0.98
Protein LMJF.28.2430 VACUOLAR ATP SYNTHASE SUBUNIT B, PUTATIVE
  fold change vs vehicle control: 1.03
Protein LMJF.28.2770, HEAT-SHOCK PROTEIN HSP70, PUTATIVE
  fold change relative to vehicle control: 1.05
Protein LMJF.28.2910 GLUTAMATE DEHYDROGENASE, PUTATIVE
  fold change: 0.88
Protein LMJF.29.0120 PROTEASOME REGULATORY NON-ATPASE SUBUNIT, PUTATIVE
  fold change vs vehicle control: 1.1
Protein LMJF.29.0620 ATP-BINDING CASSETTE PROTEIN SUBFAMILY A, MEMBER 10, PUTATIVE
  fold change: 0.79
Protein LMJF.29.0760 […] BI[…], PUTATIVE,HEAT SHOCK PROTEIN 90, PUTATIVE
  fold change vs vehicle control: 1.16
Protein LMJF.29.0850, HIGH MOBILITY GROUP PROTEIN HOMOLOG TDP-1, PUTATIVE
  fold change relative to vehicle control: 0.78
Protein LMJF.29.0940 HY[…], CONSERVED
  fold change vs vehicle control: 1.11
Protein LMJF.29.1160 TRYPAREDOXIN
  fold change vs vehicle control: 0.93
Protein LMJF.29.1240 HY[…], UNKNOWN FUNCTION
  fold change vs vehicle control: 1.04
Protein LMJF.29.1270 100 kDa heat shock protein (Hsp100)
  fold change vs vehicle control: 1.12
Protein LMJF.29.1310 CARNITINE/CHOLINE ACETYLTRANSFERASE, PUTATIVE
  fold change vs vehicle control: 1
Protein LMJF.29.1760, PARAFLAGELLAR ROD PROTEIN 1D, PUTATIVE
  fold change relative to vehicle control: 1.2
Protein LMJF.29.1780 DIPHTHAMIDE SYNTHESIS PROTEIN, PUTATIVE
  fold change vs vehicle control: 0.94
Protein LMJF.29.2200 GTP-BINDING PROTEIN, PUTATIVE (dynamin-1-like protein)
  fold change: 0.93
Protein LMJF.29.2310 ENOYL-COA HYDRATASE/ISOMERASE-LIKE PROTEIN
  fold change: 0.93
Protein LMJF.29.2360 ASPARTYL AMINOPEPTIDASE, PUTATIVE,METALLO-PEPTIDASE, CLAN MH, FAMILY M20
  fold change vs vehicle control: 1.05
Protein LMJF.29.2860 40S RIBOSOMAL PROTEIN S19-LIKE PROTEIN
  fold change: 1.02
Protein LMJF.30.0580 HYPOTHETICAL PROTEIN, CONSERVED (AMP-binding enzyme, putative)
  fold change: 0.85
Protein LMJF.30.0850 SURFACE PROTEIN AMASTIN, PUTATIVE
  fold change: 0.92
Protein LMJF.30.1250 PYRIDOXAL KINASE, PUTATIVE
  fold change vs vehicle control: 1.11
Protein LMJF.30.2580 RETICULON DOMAIN PROTEIN, 22 KDA POTENTIALLY AGGRAVATING PROTEIN (PAPLE22)
  fold change vs vehicle control: 0.95
Protein LMJF.30.3090, HY[…], CONSERVED (RNA-binding protein 42, putative)
  fold change relative to vehicle control: 1.06
Protein LMJF.30.3240 GLUTAMYL-TRNA SYNTHETASE, PUTATIVE
  fold change vs vehicle control: 0.99
Protein LMJF.30.3430 HYPOTHETICAL PROTEIN, CONSERVED (protein mkt1, putative)
  fold change: 1
Protein LMJF.30.3520 S-ADENOSYLMETHIONINE SYNTHETASE
  fold change: 0.93
Protein LMJF.30.3570 ZINC FINGER-DOMAIN PROTEIN, PUTATIVE
  fold change: 0.92
Protein LMJF.31.0080, HY[…], CONSERVED
  fold change relative to vehicle control: 1.21
Protein LMJF.31.0340 AMINO ACID PERMEASE, PUTATIVE
  fold change vs vehicle control: 1.04
Protein LMJF.31.1130 N-ACYL-L-AMINO ACID AMIDOHYDROLASE, PUTATIVE
  fold change: 1.03
Protein LMJF.31.1640 THIOLASE PROTEIN-LIKE PROTEIN
  fold change vs vehicle control: 0.99
Protein LMJF.31.2150, PROSTAGLANDIN F2-ALPHA SYNTHASE/D-ARABINOSE DEHYDROGENASE
  fold change relative to vehicle control: 2.99
Protein LMJF.31.2250 3,2-TRANS-ENOYL-COA ISOMERASE, MIT[…], PUTATIVE
  fold change vs vehicle control: 1.97
Protein LMJF.32.0750 RNA BINDING PROTEIN, PUTATIVE
  fold change vs vehicle control: 0.99
Protein LMJF.32.1060 DYNEIN, PUTATIVE
  fold change vs vehicle control: 1.08
Protein LMJF.32.1820, IRON […], PUTATIVE
  fold change relative to vehicle control: 1.09
Protein LMJF.32.2320, C-14 STEROL REDUCTASE, PUTATIVE
  fold change relative to vehicle control: 1.65
Protein LMJF.32.3870 MYOSIN XXI
  fold change vs vehicle control: 0.92
Protein LMJF.33.0240, THIOL-DEPENDENT REDUCTASE 1
  fold change relative to vehicle control: 1.07
Protein LMJF.33.0280 HYPOTHETICAL PROTEIN, CONSERVED
  fold change: 0.96
Protein LMJF.33.0890, HYPOTHETICAL PROTEIN, CONSERVED
  fold change relative to vehicle control: 0.93
Protein LMJF.33.1070 HY[…], UNKNOWN FUNCTION
  fold change vs vehicle control: 1.09
Protein LMJF.33.1330 CYSTEINE CONJUGATE BETA-LYASE, AMINOTRANSFERASE- LIKE PROTEIN
  fold change vs vehicle control: 0.98
Protein LMJF.33.1590 HYPOTHETICAL PROTEIN, CONSERVED (3-ketoacyl-CoA reductase, putative)
  fold change: 1
Protein LMJF.33.1860, ATP-BINDING CASSETTE PROTEIN SUBFAMILY D, MEMBER 3, PUTATIVE
  fold change relative to vehicle control: 1.06
Protein LMJF.33.2340, SUCCINYL-COA:3-KETOACID-COENZYME A TRANSFERASE, MIT[…], PUTATIVE
  fold change relative to vehicle control: 1.19
Protein LMJF.33.2440, HY[…], CONSERVED
  fold change relative to vehicle control: 1.14
Protein LMJF.33.2540, CARBOXYPEPTIDASE, PUTATIVE,METALLO-PEPTIDASE, CLAN MA(E), FAMILY M32
  fold change relative to vehicle control: 1.06
Protein LMJF.33.3150 40S RIBOSOMAL PROTEIN S13, PUTATIVE
  fold change: 0.96
Protein LMJF.34.0140, MALATE DEHYDROGENASE
  fold change relative to vehicle control: 6.88
Protein LMJF.34.0440 RIBOSOMAL PROTEIN S25
  fold change vs vehicle control: 1.13
Protein LMJF.34.2580, HY[…], CONSERVED (ALBA-domain protein 3)
  fold change relative to vehicle control: 1.04
Protein LMJF.34.3250, PUTATIVE PYRUVATE/INDOLE-PYRUVATE CARBOXYLASE, PUTATIVE
  fold change relative to vehicle control: 1.08
Protein LMJF.34.4370 20S PROTEASOME BETA 7 SUBUNIT, (PUTATIVE)
  fold change: 0.97
Protein LMJF.34.4620 HYPOTHETICAL PROTEIN, CONSERVED
  fold change vs vehicle control: 1.3
Protein LMJF.35.0070 PROHIBITIN, PUTATIVE
  fold change: 1.03
Protein LMJF.35.0360 ENOYL-COA HYDRATASE/ISOMERASE FAMILY PROTEIN, CONSERVED
  fold change vs vehicle control: 1.09
Protein LMJF.35.0370 ATP-DEPENDENT DEAD-BOX RNA HELICASE, PUTATIVE
  fold change: 0.98
